Experimental data taken from US11629143B2, “HipK4 inhibitors and uses thereof” (Vibliome Therapeutics, LLC, priority 2020, dated 2023).

Columns and labels:
Experiment in all cases: Kinase panel (mobility shift)
Type in all cases: biochemical
LOK = LOK (Homo sapiens, UniProt O94804); settings: at 5 um
In short: (§1)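 Each kinase was incubated with a fluorescently labeled substrate and compound in a standard reaction mix. After the reaction was stopped, product and substrate were separated on microfluidic chips by electrophoretic mobility shift. Activity came from comparing product and substrate peak fluorescence, graded A (95% or greater), B (90%-94%) or C (80%-89%) at 5 um.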

P38-a = P38-a (Homo sapiens, UniProt Q16539); settings: at 5 um
Sequence of P38-a (Q16539 whole entry): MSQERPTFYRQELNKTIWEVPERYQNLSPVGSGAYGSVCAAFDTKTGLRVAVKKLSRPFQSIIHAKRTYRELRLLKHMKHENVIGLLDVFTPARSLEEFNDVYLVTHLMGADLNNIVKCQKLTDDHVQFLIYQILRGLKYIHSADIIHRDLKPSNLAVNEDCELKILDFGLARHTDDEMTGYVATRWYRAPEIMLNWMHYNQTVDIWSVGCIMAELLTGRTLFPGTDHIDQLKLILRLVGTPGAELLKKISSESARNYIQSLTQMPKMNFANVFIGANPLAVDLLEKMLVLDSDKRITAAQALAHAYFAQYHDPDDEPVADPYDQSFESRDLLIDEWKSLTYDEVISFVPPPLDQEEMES
In short: as §1

TRKB = TRKB (Homo sapiens, UniProt Q16620)
Sequence of TRKB (Q16620 32-822, species assumed): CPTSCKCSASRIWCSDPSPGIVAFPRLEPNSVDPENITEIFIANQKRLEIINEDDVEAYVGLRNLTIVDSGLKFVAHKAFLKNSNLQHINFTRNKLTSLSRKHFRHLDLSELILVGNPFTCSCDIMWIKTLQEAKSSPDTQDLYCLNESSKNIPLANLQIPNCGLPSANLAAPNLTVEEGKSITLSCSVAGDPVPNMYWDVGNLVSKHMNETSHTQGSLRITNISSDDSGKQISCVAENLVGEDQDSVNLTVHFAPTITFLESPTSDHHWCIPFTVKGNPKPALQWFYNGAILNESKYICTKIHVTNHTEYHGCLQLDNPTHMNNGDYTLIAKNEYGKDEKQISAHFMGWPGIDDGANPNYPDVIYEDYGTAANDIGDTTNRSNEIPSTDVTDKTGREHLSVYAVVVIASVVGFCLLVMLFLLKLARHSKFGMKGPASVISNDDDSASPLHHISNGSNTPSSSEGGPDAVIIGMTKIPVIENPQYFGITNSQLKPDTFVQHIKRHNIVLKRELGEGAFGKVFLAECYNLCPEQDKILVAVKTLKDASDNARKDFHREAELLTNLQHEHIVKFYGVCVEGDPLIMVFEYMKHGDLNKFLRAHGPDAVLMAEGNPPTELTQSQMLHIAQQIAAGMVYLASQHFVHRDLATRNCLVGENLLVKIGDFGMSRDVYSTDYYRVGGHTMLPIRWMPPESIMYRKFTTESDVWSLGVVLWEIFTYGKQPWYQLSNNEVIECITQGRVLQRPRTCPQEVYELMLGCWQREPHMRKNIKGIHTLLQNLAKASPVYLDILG
In short: as §1

EPH-A8 = target: T1, EPH-A8 (Homo sapiens, UniProt P29322)
T1 sequence (P29322 28-1005): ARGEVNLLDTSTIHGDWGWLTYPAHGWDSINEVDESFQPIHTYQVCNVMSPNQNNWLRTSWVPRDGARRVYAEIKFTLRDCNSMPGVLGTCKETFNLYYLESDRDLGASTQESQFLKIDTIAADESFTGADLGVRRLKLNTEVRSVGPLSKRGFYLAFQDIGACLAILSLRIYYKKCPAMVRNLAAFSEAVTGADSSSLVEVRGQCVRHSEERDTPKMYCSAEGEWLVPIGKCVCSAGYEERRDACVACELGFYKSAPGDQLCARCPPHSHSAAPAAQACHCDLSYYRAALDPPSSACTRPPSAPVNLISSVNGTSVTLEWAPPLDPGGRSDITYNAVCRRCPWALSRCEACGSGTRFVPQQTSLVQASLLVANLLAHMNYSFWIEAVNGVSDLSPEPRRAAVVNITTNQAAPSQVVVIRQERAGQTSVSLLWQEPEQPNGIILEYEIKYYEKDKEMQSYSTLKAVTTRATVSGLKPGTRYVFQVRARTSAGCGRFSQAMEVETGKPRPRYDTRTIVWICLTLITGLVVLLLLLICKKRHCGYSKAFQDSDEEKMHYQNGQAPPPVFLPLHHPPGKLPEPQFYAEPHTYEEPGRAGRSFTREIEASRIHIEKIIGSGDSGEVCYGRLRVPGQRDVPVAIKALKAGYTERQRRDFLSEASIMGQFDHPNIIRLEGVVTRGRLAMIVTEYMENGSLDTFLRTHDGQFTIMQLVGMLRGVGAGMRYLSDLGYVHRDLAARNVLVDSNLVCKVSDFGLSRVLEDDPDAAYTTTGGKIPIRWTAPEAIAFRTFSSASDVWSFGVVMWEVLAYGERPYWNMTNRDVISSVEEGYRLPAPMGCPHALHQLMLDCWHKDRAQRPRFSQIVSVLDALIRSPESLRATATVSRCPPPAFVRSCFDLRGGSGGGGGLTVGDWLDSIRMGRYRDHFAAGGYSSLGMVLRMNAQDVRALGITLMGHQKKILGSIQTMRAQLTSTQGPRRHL
In short: as §1

TIE2 = TIE2 (Homo sapiens, UniProt Q02763)
Sequence of TIE2 (Q02763 23-1124, species assumed): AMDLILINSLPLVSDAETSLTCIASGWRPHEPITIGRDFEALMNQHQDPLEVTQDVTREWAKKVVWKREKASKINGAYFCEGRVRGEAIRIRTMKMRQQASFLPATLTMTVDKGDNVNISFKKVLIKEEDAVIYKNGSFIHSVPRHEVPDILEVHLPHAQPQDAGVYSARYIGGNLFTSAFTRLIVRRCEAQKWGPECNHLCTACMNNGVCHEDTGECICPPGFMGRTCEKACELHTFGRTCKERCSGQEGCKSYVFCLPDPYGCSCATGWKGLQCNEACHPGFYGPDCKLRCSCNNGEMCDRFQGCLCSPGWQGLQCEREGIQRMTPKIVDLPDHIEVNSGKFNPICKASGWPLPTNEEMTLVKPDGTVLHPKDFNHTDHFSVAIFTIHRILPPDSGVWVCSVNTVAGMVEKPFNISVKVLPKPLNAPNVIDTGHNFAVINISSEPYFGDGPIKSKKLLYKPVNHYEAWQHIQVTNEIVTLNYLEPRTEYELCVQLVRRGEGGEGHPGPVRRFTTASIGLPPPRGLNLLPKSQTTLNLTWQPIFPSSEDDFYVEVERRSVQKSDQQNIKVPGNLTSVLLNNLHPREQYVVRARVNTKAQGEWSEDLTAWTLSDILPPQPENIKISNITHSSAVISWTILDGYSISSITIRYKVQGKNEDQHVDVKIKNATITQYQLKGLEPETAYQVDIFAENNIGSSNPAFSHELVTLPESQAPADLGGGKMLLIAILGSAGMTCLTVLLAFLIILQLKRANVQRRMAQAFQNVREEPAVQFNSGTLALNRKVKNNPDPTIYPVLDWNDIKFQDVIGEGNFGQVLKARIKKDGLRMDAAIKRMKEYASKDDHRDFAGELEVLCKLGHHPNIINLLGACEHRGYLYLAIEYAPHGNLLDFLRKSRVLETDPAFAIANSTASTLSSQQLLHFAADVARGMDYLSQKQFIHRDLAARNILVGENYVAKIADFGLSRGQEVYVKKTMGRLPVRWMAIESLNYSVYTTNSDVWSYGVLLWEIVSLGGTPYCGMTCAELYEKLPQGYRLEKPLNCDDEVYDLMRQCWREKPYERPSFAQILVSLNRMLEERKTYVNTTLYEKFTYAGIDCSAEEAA
In short: as §1

SRC = SRC (Homo sapiens, UniProt P12931)
Sequence of SRC (P12931 whole entry, species assumed): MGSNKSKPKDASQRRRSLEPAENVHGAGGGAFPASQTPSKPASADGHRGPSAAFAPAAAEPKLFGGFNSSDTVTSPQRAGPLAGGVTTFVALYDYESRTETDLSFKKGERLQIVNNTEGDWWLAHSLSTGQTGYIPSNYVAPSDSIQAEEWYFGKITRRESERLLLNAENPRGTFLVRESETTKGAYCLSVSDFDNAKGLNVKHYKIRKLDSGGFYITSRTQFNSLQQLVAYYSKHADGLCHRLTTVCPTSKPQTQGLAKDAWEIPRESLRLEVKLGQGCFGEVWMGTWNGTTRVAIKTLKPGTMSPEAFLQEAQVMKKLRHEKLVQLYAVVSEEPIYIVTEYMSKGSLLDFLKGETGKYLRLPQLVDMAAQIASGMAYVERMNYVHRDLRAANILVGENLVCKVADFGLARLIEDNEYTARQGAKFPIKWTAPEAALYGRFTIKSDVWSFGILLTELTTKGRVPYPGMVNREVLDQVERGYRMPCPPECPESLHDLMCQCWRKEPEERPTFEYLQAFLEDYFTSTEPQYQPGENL
In short: as §1

TYRO3 = target: T2, TYRO3 (Homo sapiens, UniProt Q06418)
T2 sequence (Q06418 41-890): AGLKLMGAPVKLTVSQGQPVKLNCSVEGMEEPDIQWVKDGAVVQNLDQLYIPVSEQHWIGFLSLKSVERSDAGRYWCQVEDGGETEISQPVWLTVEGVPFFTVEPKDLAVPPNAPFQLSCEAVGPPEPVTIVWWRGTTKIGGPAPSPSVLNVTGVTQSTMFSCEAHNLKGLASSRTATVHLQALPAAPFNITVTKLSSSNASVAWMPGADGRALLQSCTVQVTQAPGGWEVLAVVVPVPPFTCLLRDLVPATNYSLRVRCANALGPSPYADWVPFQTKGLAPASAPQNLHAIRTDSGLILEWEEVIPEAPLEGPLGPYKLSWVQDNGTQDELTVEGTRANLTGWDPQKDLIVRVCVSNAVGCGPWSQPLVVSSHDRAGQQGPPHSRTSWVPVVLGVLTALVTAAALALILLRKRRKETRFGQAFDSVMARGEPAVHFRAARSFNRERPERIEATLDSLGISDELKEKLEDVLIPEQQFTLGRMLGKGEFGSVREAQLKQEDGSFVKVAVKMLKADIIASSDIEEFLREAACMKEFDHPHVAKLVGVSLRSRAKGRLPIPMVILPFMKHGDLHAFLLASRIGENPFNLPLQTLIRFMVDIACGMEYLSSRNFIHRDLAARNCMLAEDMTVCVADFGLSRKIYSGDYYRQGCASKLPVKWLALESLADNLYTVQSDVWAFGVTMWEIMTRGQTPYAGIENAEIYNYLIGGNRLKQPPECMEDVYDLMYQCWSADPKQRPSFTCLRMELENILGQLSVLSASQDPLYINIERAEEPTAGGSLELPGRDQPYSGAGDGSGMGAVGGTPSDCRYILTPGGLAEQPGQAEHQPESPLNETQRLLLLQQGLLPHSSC
In short: as §1

Sequence of LOK (O94804 whole entry, species assumed): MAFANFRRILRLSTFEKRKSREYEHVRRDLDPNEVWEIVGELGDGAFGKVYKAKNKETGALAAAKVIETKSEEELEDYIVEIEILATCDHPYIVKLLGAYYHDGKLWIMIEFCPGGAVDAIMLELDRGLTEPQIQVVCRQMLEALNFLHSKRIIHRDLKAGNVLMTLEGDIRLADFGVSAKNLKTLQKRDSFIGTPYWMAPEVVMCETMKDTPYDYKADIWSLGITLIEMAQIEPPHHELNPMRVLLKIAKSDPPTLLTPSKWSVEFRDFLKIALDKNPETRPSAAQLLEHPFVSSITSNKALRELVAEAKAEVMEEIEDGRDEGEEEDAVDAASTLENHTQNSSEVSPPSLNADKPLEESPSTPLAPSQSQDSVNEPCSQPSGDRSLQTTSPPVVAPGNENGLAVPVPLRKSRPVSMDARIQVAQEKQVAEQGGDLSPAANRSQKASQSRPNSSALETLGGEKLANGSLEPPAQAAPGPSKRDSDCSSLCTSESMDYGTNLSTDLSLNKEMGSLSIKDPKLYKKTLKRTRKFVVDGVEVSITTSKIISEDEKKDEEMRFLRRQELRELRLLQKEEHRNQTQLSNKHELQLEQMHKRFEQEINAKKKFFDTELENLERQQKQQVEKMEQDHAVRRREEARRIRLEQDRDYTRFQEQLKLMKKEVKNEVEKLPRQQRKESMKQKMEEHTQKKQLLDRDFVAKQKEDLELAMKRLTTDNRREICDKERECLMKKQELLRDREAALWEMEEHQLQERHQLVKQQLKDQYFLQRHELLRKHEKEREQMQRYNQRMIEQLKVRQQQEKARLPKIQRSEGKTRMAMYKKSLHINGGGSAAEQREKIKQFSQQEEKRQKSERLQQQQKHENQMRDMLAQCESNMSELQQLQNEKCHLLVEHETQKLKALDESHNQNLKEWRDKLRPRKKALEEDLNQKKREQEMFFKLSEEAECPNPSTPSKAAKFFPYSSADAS

In the case of `CNC(=O)c1cc(Oc2ccc(NC(=O)c3nc(SC)oc3-c3ccc(F)c(F)c3)cc2)ccn1` [Compound 4], the “inhibition of kinase activity, LOK” value (LOK) is reported as “D (category D for 50-79)”, the “inhibition of kinase activity, P38-a” value (P38-a) is reported as “C (C=80%-89% at 5 um)” and the inhibition at 5 µM (TRKB) is reported as under 50%. It also gave an inhibition at 5 µM (EPH-A8) of 50 to 79%, an inhibition at 5 µM (TIE2) of under 50% and an inhibition at 5 µM (SRC) of under 50%. It also gave an inhibition at 5 µM (TYRO3) of 50 to 79%.
For `CNC(=O)c1cc(Oc2ccc(NC(=O)c3nc(SC)oc3-c3ccc(OC)cc3)cc2)ccn1` [Compound 7], the “inhibition of kinase activity, LOK” value (LOK) was “C (C=80%-89% at 5 um)”, the “inhibition of kinase activity, P38-a” value (P38-a) was “E (category E is less than 50%)” and the inhibition at 5 µM (TRKB) was under 50%. For the same compound, the inhibition at 5 µM (EPH-A8) was under 50%, the inhibition at 5 µM (TIE2) was under 50% and the inhibition at 5 µM (SRC) was under 50%. It also gave an inhibition at 5 µM (TYRO3) of under 50%.
With `[2H]C([2H])([2H])NC(=O)c1cc(Oc2ccc(NC(=O)c3nc(SC)oc3-c3ccc(F)s3)cc2F)ccn1` [Compound 35] the “inhibition of kinase activity, LOK” value (LOK) was “D (category D for 50-79)”, the “inhibition of kinase activity, P38-a” value (P38-a) was “E (category E is less than 50%)” and the inhibition at 5 µM (TRKB) was under 50%. It also gave an inhibition at 5 µM (EPH-A8) of under 50%, an inhibition at 5 µM (TIE2) of under 50% and an inhibition at 5 µM (SRC) of under 50%. It also gave an inhibition at 5 µM (TYRO3) of 50 to 79%.
